The test system of series [1] is dog thrombosis model (carotid artery, femoral artery, femoral vein). Kind of series: Carotid, Femoral Artery and Femoral Vein Thrombosis in Dogs (Electrolytic Injury Model). Conditions: for Incidence of Occlusion / Time to Occlusion / Blood Flow, Basal / Blood Flow, End: dog carotid artery; for Incidence of Occlusion: saline 44/44; for Time to Occlusion: saline 93 ±30.4; for Blood Flow, End: saline 0; for Thrombus Weight (wet, mg), left femoral vein / Thrombus Weight (wet, mg), left carotid artery: dog, P<0.05. It is filed as in vivo. The source says:
Carotid, Femoral Artery and Femoral Vein Thrombosis In Dogs (Electrolytic Injury Model)
The thrombosis model used in this study is a modification of the one described by Rote et al., J. Cardiovascular Pharmacolgy, 1993, 23:194-202. The experimental procedure provides the formation of a platelet rich intravascular thrombus at the site of the electrolytically-induced lesion in the arterial side. The femoral artery and carotid artery responses to the electrolytic injury are similar to that observed in the canine coronary artery in which intimal wall injury secondary to application of a direct anodal current leads to platelet adherence with the resultant occlusive thrombus formation (Rote et al., J. Cardiovascular Pharmacolgy, 1993, 23:194-202; Mousa et al., Circulation, 1994, 89:3-12). Animals were instrumented and a 20-30 mm segment of the femoral or carotid arteries were exposed and freed from facia, and branches were tied. Anodal current was applied using an intravascular electrode Penetration of the vessel wall by the electrode was facilitated by attaching the tip of a 23 gauge hypodermic needle to the uninsulated part of the electrode. Each intra-arterial electrode was connected to the positive pole (anodal) of a dual channel stimulator (Ni-Cad battery, 9 volts connected to 250,000 Ohm potentiometer in series). The cathode was connected to a distant subcutaneous site. The current delivered to the arterial wall was monitored continuously and maintained at 200 μA. Proper positioning of the electrode in the artery was confirmed by visual inspection at the end of each experiment. In all experiments the anodal current was applied for a maximum period of 3 hours. Arterial flow was monitored throughout the experiment by placing a doppler flow probe connected to a flow meter around the distal portion of the vessel segment. Similar procedures were applied to the femoral vein. […]

The conditions of series [2]: dog, in vivo.
Method: Clotting Assay (Thrombin and Apothrombin Times)
Arterial blood samples were collected in 1/10th volume 3.8% sodium citrate and stored on ice for less than ten 10 minutes. Samples were centrifuged (10,000× g, 1.5 minutes) and plasma separated from cellular components. Clotting assays were performed within 30 minutes of collection in a fibrometer (BBL Bibrosystem) at 37° C. Thrombin time determinations were performed at a final thrombin concentration of 4 units/mL. Activated partial thromboplastin time (also referred to as apothrombin time) (APTT) was determined by incubating 0.1 mL plasma with 0.1 mL APTT reagent (Sigma Chemical) for three minutes, followed by addition of 0.1 mL of 25 mM CaCl2. Prothrombin time was determined by incubating 0.1 mL plasma with 0.1 mL thromboplastin, and clotting initiated by addition of 0.1 mL of 25 mM CaCl2. Assays were performed in duplicate.
For series [3] the following is noted: dog, in vivo, iv.
Method: A Simplate device (Organo Teknika) was applied to the surface of the tongue to make a uniform incision and blood was blotted with filter paper at 30 seconds intervals until bleeding completely stopped, with a 15 minutes cutoff time. Bleeding time was assessed before and at different intervals post-administration of test agent.
The mark [4] stands for this setting: 0.1 mg/kg IV bolus + 0.1 mg/kg IV infusion 3 hr.
Setting [5] is: 0.1 mg/kg IV bolus + 0.4 mg/kg IV infusion 3 hr.

Molecules are shown by their SMILES. Read-outs that look alike come from different tables or passages of the source. Non-standard residues stand in square brackets, D forms with d. Residues, ends and D or L forms follow the SMILES beside them. 3Amb = NCc1cccc(C(=O)O)c1

For `C[C@@H]1NC(=O)c2cccc(c2)CNC(=O)[C@H](CC(=O)O)NC(=O)CNC(=O)[C@H](CCCNC(=N)N)NC1=O` [Compound A, cyclo-(Ala-Arg-Gly-Asp-Mamb)] (cyclo(RGD[3Amb]A)), the “Incidence of Occlusion” value in series [1] (setting [4]) and in series [1] (setting [5]) was 0/4 in each case. The “Time to Occlusion” value in series [1] (setting [4]) and in series [1] (setting [5]) was greater than 180 min in each case. The “Blood Flow, Basal” value stood at 29.4 cm/s in series [1] (0.1 mg/kg IV bolus + 0.1 mg/kg IV infusion 3 hr, spread ±4.7) and 30.2 cm/s in series [1] (0.1 mg/kg IV bolus + 0.4 mg/kg IV infusion 3 hr, spread ±2.7). Further, the “Blood Flow, End” value was 16.3 cm/s in series [1] (0.1 mg/kg IV bolus + 0.1 mg/kg IV infusion 3 hr, spread ±11) and 23.8 cm/s in series [1] (0.1 mg/kg IV bolus + 0.4 mg/kg IV infusion 3 hr, spread ±8.1). Further, the “Cyclic Flow Rate (frequency/hr)” value in series [1] (dog femoral artery, 0.1 mg/kg IV bolus + 0.1 mg/kg IV infusion 3 hr, n=4, mean ± SD, P<0.01, saline 8 ± 5.5) was found to be 0.5 ± 0.4 frequency/hr. Besides, the “Thrombus Weight (wet, mg), left femoral vein” value is 2 ± 1 mg in series [1] (0.1 mg/kg IV bolus + 0.4 mg/kg infusion 3 hr, n=4, mean ± SD, saline 18 ± 5) and 4 ± 3 mg in series [1] (1 mg/kg IV bolus, n=3, 200 μA, mean ± SD, saline right femoral vein 18 ± 5). Moreover, the “Thrombus Weight (wet, mg), left carotid artery” value amounted to 13 ± 2 mg in series [1] (0.1 mg/kg IV bolus + 0.4 mg/kg infusion 3 hr, n=4, mean ± SD, saline 53 ± 4) and 14 ± 4 mg in series [1] (1 mg/kg IV bolus, n=3, 200 μA, mean ± SD, saline right carotid 51 ± 4).
With `N=C(N)NCCC[C@@H]1NC(=O)[C@@H]2CCCN2C(=O)c2cccc(c2)CNC(=O)[C@H](CC(=O)O)NC(=O)CNC1=O` [Compound B, cyclo-(Pro-Arg-Gly-Asp-Mamb)] (cyclo(RGD[3Amb]P)), the “effect on apothrombin time or thrombin time” value in series [2] is “no effect on apothrombin time or thrombin time”. Besides, the “Bleeding Time” value in series [3] (1 mg/kg), in series [3] (3 mg/kg) and in series [3] (10 mg/kg) was 3 to 4 min each time.

Values taken from patent US6056958A, “Method of treatment of arterial and venous thromboembolic disorders” (Dupont Pharmaceuticals, priority 1997, dated 2000).
